One test has as its target T1, human CD73 (Homo sapiens, UniProt P21589).
T1 construct: purchased R&D Systems 5795-EN-010
T1 sequence (P21589 27-549): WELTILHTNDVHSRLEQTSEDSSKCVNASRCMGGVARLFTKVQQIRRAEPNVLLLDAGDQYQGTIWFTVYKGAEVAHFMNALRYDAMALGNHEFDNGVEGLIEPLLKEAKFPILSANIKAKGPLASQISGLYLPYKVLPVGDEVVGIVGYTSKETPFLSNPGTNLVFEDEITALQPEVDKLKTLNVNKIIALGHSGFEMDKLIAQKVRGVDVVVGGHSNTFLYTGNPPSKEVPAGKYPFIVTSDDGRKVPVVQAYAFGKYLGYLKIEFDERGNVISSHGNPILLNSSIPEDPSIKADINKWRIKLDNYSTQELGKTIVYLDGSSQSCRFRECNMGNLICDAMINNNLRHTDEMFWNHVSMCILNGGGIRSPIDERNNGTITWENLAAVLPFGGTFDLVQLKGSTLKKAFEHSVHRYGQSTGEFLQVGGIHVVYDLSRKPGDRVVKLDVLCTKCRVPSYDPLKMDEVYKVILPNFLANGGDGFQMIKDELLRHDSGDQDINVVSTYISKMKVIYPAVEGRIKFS
Nature of the test: Inhibition of 5′-Nucleotidase Activity of CD73 (Assay 1). It counts as biochemical. Conditions: human CD73 4 ng/ml, 50 μM CMP, 20 min at RT, malachite green readout; read-out: Assay 1: IC50, inhibition of 5′-nucleotidase activity of CD73. Here is the method: Inhibition of 5′-Nucleotidase Activity of CD73 (Assay 1)
Compounds of the present invention were tested for the ability to inhibit CD73 enzyme activity. Tested compounds were dissolved in DMSO (50× final concentration), and 3.2 μL of the solutions added to 96-well polystyrene plates. To these wells were added, 100 μL of human CD73 (R&D Systems Cat. No. 5795-EN-010) and 57 μL of cytidine-5′-monophosphate (CMP) solutions in assay buffer (25 mM Tris-HCl, pH 7.4, 0.005% Brij-35) were added to achieve final concentrations in the assay of 4 ng/ml CD73 and 50 μM of CMP. The assay mixture was incubated for 20 min at RT. The reaction was stopped by addition of 40 μL of malachite green reagent which was prepared by mixing together 10 ml 2M H2SO4, 2.5 ml of 15% ammonium molybdate and 0.2 ml of 11% Tween-20. The mixture was agitated vigorously for 10 min at RT, and absorbance at 620 nm was determined on a microplate spectrophotometer. […] The IC50 values were derived using a non-linear 4 parameter logistic model (XLFit software, IDBS) and correspond to the inflection points on dose-response curves.

The target in test [1] is T2, CD73 on U138 neuroglioma cells (Homo sapiens, UniProt P21589).
T2 construct: U138 neuroglioma cells, which express CD73 on their surface; endogenous in cells; host or cells: U138 neuroglioma cells (ATCC)
T2 sequence (P21589 27-549): T1 sequence (P21589 27-549)
Nature of the test: Inhibition of Ecto-5′-Nucleotidase Activity in U138 Neuroglioma Cells (Assay 2). It counts as cell-based. As for the experimental part:
Inhibition of Ecto-5′-Nucleotidase Activity in U138 Neuroglioma Cells (Assay 2)
U138 cells were obtained from the American Type Culture Collection (ATCC) (Manassas, Va.), and cultured in complete growth media (DMEM, 10% FBS, 1 mM L-glutamine, 100 U penicillin-streptomycin) at 37° C., 5% CO2. The day before the experiment, cells were seeded at 2,500 cells/well in 100 μL of complete media into 96-well plates. Cells were washed twice with 200 μL of assay buffer (20 mM HEPES, pH 7.4, 137 mM NaCl, 5.4 mM KCl, 1.3 mM CaCl2, 4.2 mM NaHCO3, 1 mg/mL glucose) to remove residual inorganic phosphate. After washing, assays contained serial dilutions of test compounds and 50 μM of cytidine-5′-monophosphate (CMP) in a total volume of 200 μL of assay buffer, with a final DMSO concentration ≤0.1%. After 2 hr at 37° C., 5% CO2, 100 μL of supernatant was removed from the cells and the concentration of inorganic phosphate was determined using malachite green reagent. IC50 values for test compounds were determined from nonlinear regression fits of the data using XLfit (IDBS).

Setting [2] is: 50 μM CMP, 2 hr at 37° C., malachite green readout, read-out: Assay 2: IC50, inhibition of ecto-5′-nucleotidase activity in U138 neuroglioma cells.

The structures appear in SMILES notation. Like-named read-outs stand apart in the source and are kept apart here.

Consider `CCOC(=O)[C@H](OC[C@H]1O[C@@H](n2cnc3c(N)nc(Cl)nc32)[C@H](O)[C@@H]1O)P(=O)(O)O` (single isomer, unassigned) [1, isomer 1], for which the IC50 (at human CD73; in test [1] (setting [2])) was under 0.1 µM each time. With `CCOC(=O)[C@@H](OC[C@H]1O[C@@H](n2cnc3c(N)nc(Cl)nc32)[C@H](O)[C@@H]1O)P(=O)(O)O` (single isomer, unassigned) [1, isomer 2], the IC50 (on human CD73; in test [1] (setting [2])) was 0.1 to 1 µM throughout. Regarding `CCOC(=O)[C@](C)(OC[C@H]1O[C@@H](n2cnc3c(N)nc(Cl)nc32)[C@H](O)[C@@H]1O)P(=O)(O)O` (single isomer, unassigned) [Example 9], the IC50 (usually the concentration that gives 50% inhibition) was under 0.1 µM on human CD73 and 0.1 to 1 µM in test [1] (setting [2]). For `CCOC(=O)[C@@](C)(OC[C@H]1O[C@@H](n2cnc3c(N)nc(Cl)nc32)[C@H](O)[C@@H]1O)P(=O)(O)O` (single isomer, unassigned) [Example 9a] the same measures were 0.1 to 1 µM and 0.1 to 1 µM. Consider `CS(=O)(=O)C(OC[C@H]1O[C@@H](n2cnc3c(N)nc(Cl)nc32)[C@H](O)[C@@H]1O)P(=O)(O)O` (single isomer, unassigned) [Example 10], for which the IC50 (at human CD73; in test [1] (setting [2])) was 0.1 to 1 µM throughout. For `CCS(=O)(=O)C(OC[C@H]1O[C@@H](n2cnc3c(N)nc(Cl)nc32)[C@H](O)[C@@H]1O)P(=O)(O)O` (single isomer, unassigned) [Example 11], the IC50 was under 0.1 µM at human CD73 and 0.1 to 1 µM in test [1] (setting [2]). `CCS(=O)(=O)C(OC[C@H]1O[C@@H](n2cnc3c(N)nc(Cl)nc32)[C@H](O)[C@@H]1O)P(=O)(O)O` (single isomer, unassigned) [Example 11a]: the IC50 at human CD73 is 0.1 to 1 µM; in test [1] (setting [2]) it was over 1 µM. For `CCCS(=O)(=O)[C@H](OC[C@H]1O[C@@H](n2cnc3c(N)nc(Cl)nc32)[C@H](O)[C@@H]1O)P(=O)(O)O` (single isomer, unassigned) [Example 12] the same measures were under 0.1 µM and 0.1 to 1 µM. Taken in the same sequence, the figures for `CC(C)CS(=O)(=O)[C@H](OC[C@H]1O[C@@H](n2cnc3c(N)nc(Cl)nc32)[C@H](O)[C@@H]1O)P(=O)(O)O` (single isomer, unassigned) [Example 13] were under 0.1 µM and 0.1 to 1 µM. For `CC(C)COC(=O)[C@H](OC[C@H]1O[C@@H](n2cnc3c(N)nc(Cl)nc32)[C@H](O)[C@@H]1O)P(=O)(O)O` (single isomer, unassigned) [Example 14] the same measures were under 0.1 µM and under 0.1 µM.

`CC(C)COC(=O)[C@@H](OC[C@H]1O[C@@H](n2cnc3c(N)nc(Cl)nc32)[C@H](O)[C@@H]1O)P(=O)(O)O` (single isomer, unassigned) [Example 14a]: the IC50 (on human CD73; in test [1] (setting [2])) was 0.1 to 1 µM each time. Take `CC(C)(C)OC(=O)[C@H](OC[C@H]1O[C@@H](n2cnc3c(N)nc(Cl)nc32)[C@H](O)[C@@H]1O)P(=O)(O)O` (single isomer, unassigned) [Example 15]: the half-inhibitory concentration (IC50) (on human CD73; in test [1] (setting [2])) was under 0.1 µM in each case. Turning to `CC(C)(C)OC(=O)[C@@H](OC[C@H]1O[C@@H](n2cnc3c(N)nc(Cl)nc32)[C@H](O)[C@@H]1O)P(=O)(O)O` (single isomer, unassigned) [Example 15a], the IC50 (on human CD73; in test [1] (setting [2])) was 0.1 to 1 µM throughout. Consider `Nc1nc(Cl)nc2c1ncn2[C@@H]1O[C@H](CO[C@@H](C(=O)OCc2ccccc2)P(=O)(O)O)[C@@H](O)[C@H]1O` (single isomer, unassigned) [Example 16], for which the IC50 (on human CD73; in test [1] (setting [2])) was under 0.1 µM each time. For `CC(C)CNC(=O)[C@H](OC[C@H]1O[C@@H](n2cnc3c(N)nc(Cl)nc32)[C@H](O)[C@@H]1O)P(=O)(O)O` (single isomer, unassigned) [Example 17], the IC50 (on human CD73; in test [1] (setting [2])) was under 0.1 µM in each case. Regarding `CC(C)CNC(=O)[C@@H](OC[C@H]1O[C@@H](n2cnc3c(N)nc(Cl)nc32)[C@H](O)[C@@H]1O)P(=O)(O)O` (single isomer, unassigned) [Example 17a], the IC50 was 0.1 to 1 µM on human CD73 and under 0.1 µM in test [1] (setting [2]). Taken in the same sequence, the figures for `CCNC(=O)[C@H](OC[C@H]1O[C@@H](n2cnc3c(N)nc(Cl)nc32)[C@H](O)[C@@H]1O)P(=O)(O)O` (single isomer, unassigned) [Example 18] were under 0.1 µM and 0.1 to 1 µM. Consider `CCNC(=O)[C@@H](OC[C@H]1O[C@@H](n2cnc3c(N)nc(Cl)nc32)[C@H](O)[C@@H]1O)P(=O)(O)O` (single isomer, unassigned) [Example 18a], for which the results for the IC50 (at human CD73; in test [1] (setting [2])) were 0.1 to 1 µM and under 0.1 µM, respectively. Taken in the same sequence, the figures for `CC(C)(C)NC(=O)[C@H](OC[C@H]1O[C@@H](n2cnc3c(N)nc(Cl)nc32)[C@H](O)[C@@H]1O)P(=O)(O)O` (single isomer, unassigned) [Example 19] were under 0.1 µM and under 0.1 µM. The compound `Nc1ncnc2c1ncn2[C@@H]1O[C@H](COP(=O)(O)CP(=O)(O)O)[C@@H](O)[C@H]1O` [APCP, adenosine 5′-(α,β-methylene)diphosphate, reference compound] registered an IC50 in test [1] (IC50 value for APCP (standard), standard in each experiment, typical range) of 0.012 to 0.025 µM.

Turning to `Nc1ncnc2c1ncn2[C@@H]1O[C@H](COC(C(=O)NO)P(=O)(O)O)[C@@H](O)[C@H]1O` (stereo partly drawn) [Example 35, (1-(((2R,3S,4R,5R)-5-(6-amino-9H-purin-9-yl)-3,4-dihydroxytetrahydrofuran-2-yl)methoxy)-2-(hydroxyamino)-2-oxoethyl)phosphonic Acid], the IC50 at human CD73 was over 1 µM. `COC(=O)C(SC[C@H]1O[C@@H](n2cnc3c(N)ncnc32)[C@H](O)[C@@H]1O)P(=O)(O)O` (stereo partly drawn) [Example 56, (1-((((2S,3S,4R,5R)-5-(6-amino-9H-purin-9-yl)-3,4-dihydroxytetrahydrofuran-2-yl)methyl)thio)-2-methoxy-2-oxoethyl)phosphonic Acid]: on human CD73, the half-inhibitory concentration (IC50) is over 1 µM.

Take `CC(C)Nc1ncnc2c1ncn2[C@@H]1O[C@H](COC(C(=O)O)P(=O)(O)O)[C@@H](O)[C@H]1O` (stereo partly drawn) [Example 64, 2-(((2R,3S,4R,5R)-3,4-dihydroxy-5-(6-(isopropylamino)-9H-purin-9-yl)tetrahydrofuran-2-yl)methoxy)-2-phosphonoacetic acid]: the IC50 on human CD73 was over 1 µM. Turning to `O=C(O)C(OC[C@H]1C[C@@H](n2cnc3cccc(Cl)c3c2=O)[C@H](O)[C@@H]1O)P(=O)(O)O` (stereo partly drawn) [Example 71, 2-(((1R,2R,3S,4R)-4-(5-chloro-4-oxoquinazolin-3(4H)-yl)-2,3-dihydroxycyclopentyl)methoxy)-2-phosphonoacetic acid], the IC50 on human CD73 is over 1 µM. Still for that read-out and setting: the figure for `O=C(O)C(OC[C@H]1C[C@@H](n2cnc3cccc(Cl)c3c2=O)[C@H](O)[C@@H]1O)C(=O)O` [Example 74, 2-(((1R,2R,3S,4R)-4-(5-chloro-4-oxoquinazolin-3(4H)-yl)-2,3-dihydroxycyclopentyl)methoxy)malonic acid] is over 1 µM; for `CCNC(=O)C(OC[C@H]1C[C@@H](n2cnc3c(NCC)ncnc32)[C@H](O)[C@@H]1O)P(=O)(O)O` (stereo partly drawn) [Example 75, (2-(ethylamino)-1-(((1R,2R,3S,4R)-4-(6-(ethylamino)-9H-purin-9-yl)-2,3-dihydroxycyclopentyl)methoxy)-2-oxoethyl)phosphonic Acid] it is over 1 µM.

For the origin of these results see patent publication US10654884B2 (Vitae Pharmaceuticals, Inc., priority 2014, dated 2020).
